Assay results: US9089499B2, “Para-coumaric acid or para-hydroxycinnamic acid derivatives and their use in cosmetic or dermatological compositions” (BASF Beauty Care Solutions France S.A.S., priority 2005, dated 2015)
Like-named read-outs stand apart in the source and are kept apart here.

Experiments:
normal human melanocytes = test: Cytotoxicity on normal human melanocytes, PNPP assay; assay type: cell-based; details: 24 hours, relative to untreated wells
Protocol: The cytotoxicity of the active agents is studied on normal human melanocytes in 24-well plates, via assay with PNPP (P-nitrophenyl phosphate), this substance being converted into p-nitrophenol via the intracellular acid phosphatases of viable cells. The absorbance of p-nitrophenol at 405 nm is directly proportional to the number of viable cells.
The active agents are tested at 2 different concentrations (10^−4 M and 10^−5 M) and added to the culture medium and incubated at 37° C. for 24 hours. The assay with PNPP is performed on the cell lawn and the results are expressed as a percentage of viability relative to the negative control (untreated wells).

[1] = Antiradical activity, acellular DPPH model; details: DPPH 30 minutes, absorbance 520 nm
Protocol: The antiradical activity of the derivatives derived from the syntheses described above was evaluated in an in vitro acellular model using DPPH.
1,1-Diphenyl 2-picryihydrazyl, on account of its paramagnetic structure, can accept an electron or a hydrogen radical to become a stable diamagnetic molecule. This free radical, which is purple coloured in ethanol, has a strong absorption band at 520 nm.
The addition of a compound that provides electrons results in a decolorization of the 1,1-diphenyl 2-picrylhydrazyl that is proportional to the number of electrons taken up by the radical, which may be monitored by measuring the absorbance at 520 nm.
DPPH is incubated for 30 minutes in the presence of the derivatives described above, tested at a concentration of 10^−5M, or alone for the control. At the end of the incubation, the antiradical activity of the above derivatives is evaluated by measuring the absorbance of the solution at 520 nm.
The antiradical activity of each test product is calculated according to the formula, as a percentage: 100−((OD520 in the presence of the test compound/OD520 in the absence of compound)×100)

Human tyrosinase [2] = molecular target: T1, Human tyrosinase (Homo sapiens, UniProt P14679); test: In vitro test of inhibition of human tyrosinase from melanocyte extracts (L-dopa/MBTH, OD 490 nm); assay type: biochemical; details: melanocyte extract; for inhibition at 100 µM: 10^−4M, read-out: Inhibition of human tyrosinase, percentage of inhibition, Mean 10^−4M; for inhibition at 10 µM: 10^−5M, read-out: Inhibition of human tyrosinase, percentage of inhibition, Mean 10^−5M
T1 construct: endogenous in cells; host or cells: normal human melanocytes (abdominal surgery; several donors of fair, brown and black phototypes)
T1 sequence (P14679 19-529): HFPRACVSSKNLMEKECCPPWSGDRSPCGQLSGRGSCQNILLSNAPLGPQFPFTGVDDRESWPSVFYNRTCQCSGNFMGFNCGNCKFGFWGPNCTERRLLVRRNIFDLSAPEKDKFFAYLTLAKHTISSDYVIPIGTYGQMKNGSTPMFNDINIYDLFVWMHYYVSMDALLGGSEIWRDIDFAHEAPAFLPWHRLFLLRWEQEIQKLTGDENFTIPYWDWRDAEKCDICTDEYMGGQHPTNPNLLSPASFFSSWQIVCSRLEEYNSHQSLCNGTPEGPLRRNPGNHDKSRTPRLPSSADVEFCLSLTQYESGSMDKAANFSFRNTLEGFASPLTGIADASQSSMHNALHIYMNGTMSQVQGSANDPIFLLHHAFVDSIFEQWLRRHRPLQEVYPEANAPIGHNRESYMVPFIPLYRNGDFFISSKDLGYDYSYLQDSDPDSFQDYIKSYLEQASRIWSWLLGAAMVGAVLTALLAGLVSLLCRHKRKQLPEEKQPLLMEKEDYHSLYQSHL
Protocol: Human tyrosinase, obtained from melanocyte extracts obtained from healthy donors, catalyses the formation of L-dopaquinone from L-dopa. Now, the L-dopaquinone may be quantified by visible spectrophotometry at 490 nm by means of a chromogen: 3-methyl-2-benzothiazolinone hydrazone (MBTH).
The melanocyte extract is obtained after lysis of cell membranes of the normal human melanocytes, performed via a thermal shock. The supernatant is recovered and then incubated with MBTH (Sigma) and L-dopa (Sigma). […]

Human tyrosinase [3] = molecular target: T1, Human tyrosinase; test: Inhibition of human tyrosinase after 24 h application to normal human melanocytes in monolayer; assay type: cell-based; details: for inhibition at 1000 µM: 10^−3 M
Protocol: Normal human melanocytes (obtained from abdominal surgery) are seeded in 24-well plates at a rate of 80 000 cells per well. They are cultured to confluence and the active agents are applied for 24 hours to the culture media. After 24 hours, the media are removed and the melanocytes are detached via mechanical action. An extraction is performed via a thermal shock and the supernatants are then recovered and incubated with MBTH (Sigma) and L-dopa (Sigma). The OD at 490 nm is measured after 30 minutes, and the tyrosinase inhibition is calculated by relating the OD at 490 nm to the protein content (measured in each culture well) of the test relative to the ratio: OD 490 nm/protein concentration of the negative control (untreated control).
The compounds derived from the examples mentioned above were tested on melanocytes derived from various donors but of fair phototype, according to the protocol described in Example 29. The donors tested are as follows: • donor S (donor tested in Example 12): • donor 1: • donor 2: • donor 3
The compound derived from Example 1 is tested on cultures of melanocytes obtained from 2 donors of brown phototype and from one donor of black phototype. The protocol applied is that described in Example 29. […]

fungal tyrosinase = test: In vitro test of inhibition of isolated fungal tyrosinase (L-dopa, dopachrome OD 490 nm); assay type: biochemical; details: 490 nm
Excerpt: Tyrosinase catalyses the formation of L-dopaquinone and then of dopachrome from L-dopa. Now, dopachrome is a coloured compound that may be quantified by visible spectrophotometry at 490 nm. The use of an active agent capable of modifying the enzymatic activity will be reflected by a variation in the optical density at 490 nm. The to ratio of the rates of formation of dopachrome makes it possible to determine precisely the activations or inhibitions obtained with the various test molecules.
The sample to be tested is incubated in the presence of fungal tyrosinase (Sigma), for 5 minutes with stirring. L-Dopa (Sigma), a tyrosinase substrate, is incubated for 10 minutes in the absence of light, in the presence or absence of the test molecules. The calculation of the percentage of inhibition is performed by relating the test OD to the OD of the negative control without molecule.
In the context of this in vitro test, the p-coumaric acid derivatives were tested at final concentrations of 10^−4M and 10^−5M.

[4] = 10^−4M, 24 hours, read-out: Inhibition of human tyrosinase after application to normal human melanocytes, percentage of inhibition, Mean 10^−4M
[5] = 10^−5M, 24 hours, read-out: Inhibition of human tyrosinase after application to normal human melanocytes, percentage of inhibition, Mean 10^−5M
[6] = B103, Donor B, brown phototype, read-out: Inhibition of tyrosinase, Mean Donor B, 10^−3 M
[7] = B104, Donor B, brown phototype, 10^−4 M, read-out: Inhibition of tyrosinase, Mean Donor B, 10^−4 M
[8] = Donor 1, fair phototype, 10^−4 M, read-out: Inhibition of tyrosinase, Mean 10^−4 M, Donor 1
[9] = Donor 1, fair phototype, 10^−5 M, read-out: Inhibition of tyrosinase, Mean 10^−5 M, Donor 1
[10] = Donor 2, fair phototype, 10^−4 M, read-out: Inhibition of tyrosinase, Mean 10^−4 M, Donor 2
[11] = Donor 2, fair phototype, 10^−5 M, read-out: Inhibition of tyrosinase, Mean 10^−5 M, Donor 2
[12] = Donor 3, fair phototype, 10^−4 M, read-out: Inhibition of tyrosinase, Mean 10^−4 M, Donor 3
[13] = Donor 3, fair phototype, 10^−5 M, read-out: Inhibition of tyrosinase, Mean 10^−5 M, Donor 3
[14] = Donor A, brown phototype, read-out: Inhibition of tyrosinase, Mean Donor A, 10^−3 M
[15] = Donor A, brown phototype, 10^−4 M, read-out: Inhibition of tyrosinase, Mean Donor A, 10^−4 M
[16] = Donor A, brown phototype, 10^−5 M, read-out: Inhibition of tyrosinase, Mean Donor A, 10^−5 M
[17] = Donor B, brown phototype, 10^−5 M, read-out: Inhibition of tyrosinase, Mean Donor B, 10^−5 M
[18] = Donor S, fair phototype, 10^−4 M, read-out: Inhibition of tyrosinase, Mean 10^−4 M, Donor S
[19] = Donor S, fair phototype, 10^−5 M, read-out: Inhibition of tyrosinase, Mean 10^−5 M, Donor S
[20] = donor of black phototype, 10^−4 M, read-out: Inhibition, Mean Negroid skin, 10^−4 M
[21] = donor of black phototype, 10^−5 M, read-out: Inhibition, Mean Negroid skin, 10^−5 M

## O=C(/C=C/c1ccc(O)c(O)c1)NCCc1ccc(O)cc1 [Example 9, N-trans-caffeoyltyramine]
Normal human melanocytes
  Percentages of viability, Mean 10^−4 M: 77.9%
  Percentages of viability, Mean 10^−5 M: 94.96%
[1]
  Antiradical activity, Mean 10^−5 M: 41.17%
Human tyrosinase [2]
  inhibition at 100 µM: 22.1%
  inhibition at 10 µM: 11.9%
Human tyrosinase [3]; [4]
  inhibition at 100 µM: 100%
Human tyrosinase [3]; [5]
  inhibition at 10 µM: 24.6%
Human tyrosinase [3]; [6]
  inhibition at 1000 µM: 94.5%
Human tyrosinase [3]; [7]
  inhibition at 100 µM: 44.4%
Human tyrosinase [3]; [8]
  inhibition at 100 µM: 65.3%
Human tyrosinase [3]; [9]
  inhibition at 10 µM: 0%
Human tyrosinase [3]; [10]
  inhibition at 100 µM: 61.5%
Human tyrosinase [3]; [11]
  inhibition at 10 µM: 0%
Human tyrosinase [3]; [12]
  inhibition at 100 µM: 70.7%
Human tyrosinase [3]; [13]
  inhibition at 10 µM: 22.2%
Human tyrosinase [3]; [14]
  inhibition at 1000 µM: 98.9%
Human tyrosinase [3]; [15]
  inhibition at 100 µM: 44.6%
Human tyrosinase [3]; [16]
  inhibition at 10 µM: 21.3%
Human tyrosinase [3]; [17]
  inhibition at 10 µM: 18.9%
Human tyrosinase [3]; [18]
  inhibition at 100 µM: 100%
Human tyrosinase [3]; [19]
  inhibition at 10 µM: 24.6%
Human tyrosinase [3]; [20]
  inhibition at 100 µM: 49.3%
Human tyrosinase [3]; [21]
  inhibition at 10 µM: 16%
Fungal tyrosinase
  Inhibition of fungal tyrosinase, percentage of inhibition, Mean 10^−4M: 27.42%
  Inhibition of fungal tyrosinase, percentage of inhibition, Mean 10^−5M: 13.06%

## COc1ccc(CCNC(=O)/C=C/c2ccc(O)c(O)c2)cc1OC [Example 12, N-trans-caffeoyl-3,4-dimethoxydopamine]
Normal human melanocytes
  Percentages of viability, Mean 10^−5 M: 109.84%
[1]
  Antiradical activity, Mean 10^−5 M: 44.51%
Human tyrosinase [2]
  inhibition at 100 µM: 6.53%
  inhibition at 10 µM: 0%
Human tyrosinase [3]; [5]
  inhibition at 10 µM: 5.63%
Fungal tyrosinase
  Inhibition of fungal tyrosinase, percentage of inhibition, Mean 10^−4M: 17.32%
  Inhibition of fungal tyrosinase, percentage of inhibition, Mean 10^−5M: 20.26%

## COc1cc(/C=C/C(=O)NCCc2ccc(O)cc2)ccc1O [Example 3, N-trans-feruloyltyramine]
Normal human melanocytes
  Percentages of viability, Mean 10^−4 M: 102.55%
  Percentages of viability, Mean 10^−5 M: 111.54%
[1]
  Antiradical activity, Mean 10^−5 M: 13.73%
Human tyrosinase [2]
  inhibition at 100 µM: 0%
  inhibition at 10 µM: 7.56%
Human tyrosinase [3]; [4]
  inhibition at 100 µM: 49.6%
Human tyrosinase [3]; [5]
  inhibition at 10 µM: 33.1%
Human tyrosinase [3]; [6]
  inhibition at 1000 µM: 87.4%
Human tyrosinase [3]; [7]
  inhibition at 100 µM: 30.5%
Human tyrosinase [3]; [8]
  inhibition at 100 µM: 44.8%
Human tyrosinase [3]; [9]
  inhibition at 10 µM: 0%
Human tyrosinase [3]; [10]
  inhibition at 100 µM: 10.7%
Human tyrosinase [3]; [11]
  inhibition at 10 µM: 0%
Human tyrosinase [3]; [12]
  inhibition at 100 µM: 57.9%
Human tyrosinase [3]; [13]
  inhibition at 10 µM: 42.5%
Human tyrosinase [3]; [14]
  inhibition at 1000 µM: 85.6%
Human tyrosinase [3]; [15]
  inhibition at 100 µM: 40.4%
Human tyrosinase [3]; [16]
  inhibition at 10 µM: 15.6%
Human tyrosinase [3]; [17]
  inhibition at 10 µM: 16.7%
Human tyrosinase [3]; [18]
  inhibition at 100 µM: 49.6%
Human tyrosinase [3]; [19]
  inhibition at 10 µM: 33.1%
Human tyrosinase [3]; [20]
  inhibition at 100 µM: 44.5%
Human tyrosinase [3]; [21]
  inhibition at 10 µM: 21.9%
Fungal tyrosinase
  Inhibition of fungal tyrosinase, percentage of inhibition, Mean 10^−4M: 29.41%
  Inhibition of fungal tyrosinase, percentage of inhibition, Mean 10^−5M: 10.16%

## COc1cc(/C=C/C(=O)NCCc2ccc(OC)c(OC)c2)ccc1O [Example 2, N-trans-feruloyl-3,4-dimethoxydopamine]
Normal human melanocytes
  Percentages of viability, Mean 10^−4 M: 114.29%
  Percentages of viability, Mean 10^−5 M: 114.6%
[1]
  Antiradical activity, Mean 10^−5 M: 20.16%
Human tyrosinase [2]
  inhibition at 100 µM: 0.94%
  inhibition at 10 µM: 0%
Human tyrosinase [3]; [4]
  inhibition at 100 µM: 24.6%
Human tyrosinase [3]; [5]
  inhibition at 10 µM: 18.5%
Fungal tyrosinase
  Inhibition of fungal tyrosinase, percentage of inhibition, Mean 10^−4M: 0%
